From patent US20250049749A1, “COMPOSITION FOR IMPROVING SLEEP QUALITY OR CONTROLLING AUTONOMIC NERVOUS SYSTEM” (OTSUKA PHARMACEUTICAL CO., LTD., priority 2021, published 2025)
Entries after “also recorded” stand apart in the source; their conditions may differ.

Assays:
Format in all cases: in vivo, human
[1] = tested on: persons with meteoropathy; assay: Test 3: meteoropathy symptom questionnaire before and after start of intake
Experimental: The test shown below was conducted to investigate the functions of kaempferol associated with meteoropathy. [table]

athletes = assay: Test 2: athlete questionnaire (0 to 10) and comments before and on day 30 of intake
Experimental: The following tests were carried out to investigate the functions of kaempferol. [table] [table] In addition to the above score evaluations, an optional evaluation of the mental and physical state after intake of the test sample as compared to that before the intake was obtained in the form of comments.

[2] = tested on: healthy adult men and women; assay: Test 1: randomized, double-blind, placebo-controlled, crossover comparative test (sleep and autonomic nervous system, Fitbit Charge 4)
Experimental: A randomized, double-blind, placebo-controlled, crossover comparative test as summarized in the table below was conducted to examine the relationship between kaempferol, sleep, and the autonomic nervous system.
The granular foods used in the test were prepared according to the following procedure. Horseradish leaves were extracted twice with 50% aqueous ethanol at 50° C. and concentrated under reduced pressure. The concentrate was purified with resin to obtain a solution. Hemicellulase “Amano” 90 and Lactase F “Amano” (produced by Amano Enzyme, Inc.) were added to the solution to allow the enzyme to act thereon while stirring at 50° C. The resulting reaction liquid was then heated to 80° C. and maintained for 20 minutes to inactivate the enzyme. The resulting treated liquid was then freeze-dried to give an ethanol extract powder. This powder was combined with an equal amount (on a weight basis) of starch and erythritol and mixed into granules. The granules were packed in aluminum pouches in an amount of 116 mg (containing 10 mg of kaempferol) per pouch. The subjects ingested the contents of one pouch at one time (10 mg of kaempferol in total). The food used as a placebo was granules of starch and erythritol.
The sleep score is an index of sleep quality on a scale of 0 to 100, with a score of 90 to 100 indicating very good sleep quality, a score of 80 to 89 indicating good sleep quality, a score of 60 to 79 indicating slightly low sleep quality, and a score of 60 or less indicating low sleep quality. The sleeping heart rate is known to correlate with sleep quality. Specifically, it has been reported that the higher the heart rate during sleep, the less satisfactory the sleep obtained is (i.e., the quality of sleep is low) (see Non-Patent Literature (NPL) 1). […] This is generally consistent with the difference between the average sleeping heart rate in people with good quality sleep and that in people with poor sleep quality (FIG. 3 in NPL 1).
RMSSD is the square root of the mean squared differences of successive adjacent R-R intervals (interval from one QRS wave to the next QRS wave) and is an index of vagal tone intensity. A rise in RMSSD indicates increased parasympathetic activity or decreased sympathetic activity. […] According to the formula shown in FIG. 2 (right), KMP intake is considered to rejuvenate the age of autonomic nervous system function by 16.3 years.
The LF/HF ratio is a ratio of low frequency (LF) to high frequency (HF) power and represents the overall balance between the sympathetic nervous system and the parasympathetic nervous system. A higher LF/HF ratio indicates a state of sympathetic nervous system dominance, whereas a lower LF/HF ratio indicates parasympathetic nervous system dominance. […] According to the formula shown in FIG. 3 (right), KMP intake is considered to rejuvenate the age of autonomic nervous system function by 5.8 years.

[3] = all symptoms, during KMP intake vs before, FIG. 7
[4] = 10 mg KMP once a day, day 30 vs before intake, FIG. 4, FIG. 5
[5] = all subjects (159 athletes), 10 mg KMP once a day, day 30 vs before intake, FIG. 4
[6] = optional comment of a single subject, state after intake of the test sample vs before
[7] = swimmers (50 persons), day 30 vs before intake, FIG. 5
[8] = 10 mg KMP once a day, two weeks, vs placebo, FIG. 1

## O=c1c(O)c(-c2ccc(O)cc2)oc2cc(O)cc(O)c12 [KMP, kaempferol]
[1]; 10 mg KMP once a day, 4 consecutive weeks
  Effect on meteoropathy overall: effective in the treatment and improvement of meteoropathy
[1]; all 12 symptoms (stiff shoulders and neck, fatigue, lassitude, headache, overall ill health, irritation, depressed mood, inability to think straight, lower back pain, lethargy, anxiety, joint pain), 10 mg KMP once a day, 4 weeks, vs before intake, 393 subjects, FIG. 6
  Frequency of occurrence of each symptom of meteoropathy: significantly reduces
[1]; all 12 symptoms, KMP intake vs before intake, FIG. 8
  Degree of each symptom of meteoropathy (0-10 point scale): significantly alleviated
[1]; [3]
  Duration of each symptom of meteoropathy: significantly reduced duration
  Proportion of no occurrence of the symptom: increased proportion of no occurrence
athletes; [4]
  Achievement of exercise performance: useful
  Fatigue alleviation: useful
  Improvement of endurance (improved shortness of breath): useful
  Recovery from fatigue: useful
athletes; [5]
  Ease in sleep (questionnaire score): significant improvement
  Ease in waking up (questionnaire score): significant improvement
athletes; [6]
  Comments relating to menstruation: Menstrual pain has been relieved. Menstrual cycle; also recorded: irregularities has been improved; also recorded: Menstrual pain has been relieved and abdominal; also recorded: Swollen feet before menstruation has been relieved; also recorded: has come naturally; also recorded: returned to normal
  Comments relating to mental state: Have more motivation to practice; also recorded: Feel more highly motivated before a competition; also recorded: Feel more positive; also recorded: More mentally stable; also recorded: No longer feel depressed; also recorded: Feel less tired and more motivated to practice; also recorded: Feel better during practice; also recorded: Have become able to run more calmly than usual; also recorded: Feel more comfortable during running; also recorded: Feel more relaxed both during and outside of practice
  Other comments: The time taken to get rid of jet lag was reduced; also recorded: The symptoms of seasonal colds were not seen; also recorded: Stools have improved; also recorded: Bowel movements have improved; also recorded: Healing from injuries is faster; also recorded: Healing of fractures is much faster; also recorded: Healing of wounds after tooth extraction is faster; also recorded: Easier body weight loss; also recorded: Easier to control body weight gain; also recorded: Have improved concentration; also recorded: Symptoms of jet lag were alleviated
athletes; [7]
  Ease in sleep (questionnaire score), improvement in swimmers: particularly prominent
  Ease in waking up (questionnaire score), improvement in swimmers: particularly prominent
[2]; [8]
  Reduction of sleeping heart rate on average: 3.5 bpm
  Sleep duration: no significant change
  Sleeping heart rate: significantly reduces
[2]; 10 mg KMP once a day, two weeks, vs placebo, FIG. 2 (left)
  RMSSD during sleep: increase in RMSSD value
[2]; 10 mg KMP once a day, two weeks, vs placebo, FIG. 3 (left)
  LF/HF ratio during sleep: reduces the LF/HF ratio
[2]; according to the formula shown in FIG. 2 (right)
  Rejuvenation of the age of autonomic nervous system function (from RMSSD vs age formula): 16.3 years
[2]; according to the formula shown in FIG. 3 (right)
  Rejuvenation of the age of autonomic nervous system function (from LF/HF ratio vs age formula): 5.8 years
[2]; granular food with 10 mg KMP once a day after breakfast, two weeks, vs placebo, 34 subjects, scale 0 to 100, FIG. 1
  Sleep score: significantly improves
